This note sets out measurements from ChEMBL document CHEMBL3879901, “Substituted isoquinolin-1(2H)-ones, and methods of use thereof” (2012).

Assay [1] concerns the target PI3-kinase p110-delta/p85-alpha (Homo sapiens, UniProt O00329). As to the kind of experiment: Inhibition of N-terminal His6-tagged recombinant full-length human p110delta/untagged recombinant full length p85alpha expressed in baculovirus infected Sf21 cells using phosphatidylinositol as substrate in presence of gamma-32P-ATP after 5 mins by thin layer chromatographic method.

The target in a further assay is PI3K p110 beta/p85 alpha (Homo sapiens, UniProt P42338). As to the kind of experiment: Inhibition of N-terminal His6-tagged recombinant full-length human p110beta/untagged recombinant full length p85alpha expressed in baculovirus infected Sf21 cells using phosphatidylinositol as substrate in presence of gamma-32P-ATP after 5 mins by thin layer chromatographic method.
Chain of PI3K p110 beta/p85 alpha (P27986 whole entry): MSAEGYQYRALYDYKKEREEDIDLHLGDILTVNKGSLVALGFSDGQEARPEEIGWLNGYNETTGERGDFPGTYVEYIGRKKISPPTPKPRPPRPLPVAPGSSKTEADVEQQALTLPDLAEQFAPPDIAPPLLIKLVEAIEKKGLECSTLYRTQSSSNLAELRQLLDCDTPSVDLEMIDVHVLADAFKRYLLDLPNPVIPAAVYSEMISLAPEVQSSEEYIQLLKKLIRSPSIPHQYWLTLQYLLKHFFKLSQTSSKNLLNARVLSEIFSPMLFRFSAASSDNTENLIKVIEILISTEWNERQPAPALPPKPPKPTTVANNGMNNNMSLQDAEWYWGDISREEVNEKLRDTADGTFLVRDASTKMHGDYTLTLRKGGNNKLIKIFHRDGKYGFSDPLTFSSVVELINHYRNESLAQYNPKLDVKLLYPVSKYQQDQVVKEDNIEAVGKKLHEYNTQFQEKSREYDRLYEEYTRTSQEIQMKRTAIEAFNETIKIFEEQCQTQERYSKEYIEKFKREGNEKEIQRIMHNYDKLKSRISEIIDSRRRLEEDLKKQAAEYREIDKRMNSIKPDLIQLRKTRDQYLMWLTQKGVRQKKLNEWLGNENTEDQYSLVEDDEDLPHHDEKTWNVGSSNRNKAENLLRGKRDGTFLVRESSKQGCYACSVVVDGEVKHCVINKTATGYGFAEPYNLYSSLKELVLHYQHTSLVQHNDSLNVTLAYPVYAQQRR
Chain of PI3K p110 beta/p85 alpha (P42338 whole entry): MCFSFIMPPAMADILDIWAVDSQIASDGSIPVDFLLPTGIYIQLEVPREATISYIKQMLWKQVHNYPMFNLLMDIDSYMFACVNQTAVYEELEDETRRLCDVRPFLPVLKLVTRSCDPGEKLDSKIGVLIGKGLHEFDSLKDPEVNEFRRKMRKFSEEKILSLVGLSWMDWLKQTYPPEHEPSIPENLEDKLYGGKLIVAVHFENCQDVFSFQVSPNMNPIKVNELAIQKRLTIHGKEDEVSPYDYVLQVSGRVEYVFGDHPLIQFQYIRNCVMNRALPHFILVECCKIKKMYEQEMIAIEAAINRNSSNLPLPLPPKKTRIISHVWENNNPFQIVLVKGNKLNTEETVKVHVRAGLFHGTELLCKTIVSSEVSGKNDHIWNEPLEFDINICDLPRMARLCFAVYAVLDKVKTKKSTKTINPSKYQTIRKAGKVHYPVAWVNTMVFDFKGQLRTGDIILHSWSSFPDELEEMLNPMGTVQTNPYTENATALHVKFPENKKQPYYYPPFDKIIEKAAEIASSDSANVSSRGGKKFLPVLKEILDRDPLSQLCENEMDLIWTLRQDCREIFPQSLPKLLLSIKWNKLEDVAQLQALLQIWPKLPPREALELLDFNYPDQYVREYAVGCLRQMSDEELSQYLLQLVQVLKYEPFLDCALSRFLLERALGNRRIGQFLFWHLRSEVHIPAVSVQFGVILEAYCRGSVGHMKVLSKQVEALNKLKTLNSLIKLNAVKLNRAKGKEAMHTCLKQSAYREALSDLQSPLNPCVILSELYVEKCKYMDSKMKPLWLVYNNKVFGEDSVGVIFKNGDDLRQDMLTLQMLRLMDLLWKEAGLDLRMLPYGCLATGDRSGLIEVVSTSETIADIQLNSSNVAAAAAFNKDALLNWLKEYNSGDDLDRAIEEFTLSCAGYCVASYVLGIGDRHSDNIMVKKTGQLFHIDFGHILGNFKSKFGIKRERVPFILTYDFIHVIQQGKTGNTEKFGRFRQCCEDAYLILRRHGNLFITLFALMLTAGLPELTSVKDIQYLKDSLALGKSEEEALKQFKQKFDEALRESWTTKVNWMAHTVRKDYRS

Assay [2] concerns the target Phosphatidylinositol 4,5-bisphosphate 3-kinase catalytic subunit gamma isoform (Homo sapiens, UniProt P48736). Briefly: Inhibition of recombinant human C-terminal His6-tagged p110gamma expressed in insect cells using phosphatidylinositol as substrate in presence of gamma-32P-ATP after 5 mins by thin layer chromatographic method.
In assay [3] the target is PI3-kinase p110-alpha/p85-alpha (Homo sapiens, UniProt P42336). Briefly: Inhibition of N-terminal His6-tagged recombinant full-length human p110alpha/untagged recombinant full length human p85alpha expressed in baculovirus infected Sf21 cells using phosphatidylinositol as substrate in presence of gamma-32P-ATP after 5 mins by thin layer chromatographic method.
Chain of PI3-kinase p110-alpha/p85-alpha (P27986 whole entry): as the sequence (P27986 whole entry) above
Chain of PI3-kinase p110-alpha/p85-alpha (P42336 whole entry): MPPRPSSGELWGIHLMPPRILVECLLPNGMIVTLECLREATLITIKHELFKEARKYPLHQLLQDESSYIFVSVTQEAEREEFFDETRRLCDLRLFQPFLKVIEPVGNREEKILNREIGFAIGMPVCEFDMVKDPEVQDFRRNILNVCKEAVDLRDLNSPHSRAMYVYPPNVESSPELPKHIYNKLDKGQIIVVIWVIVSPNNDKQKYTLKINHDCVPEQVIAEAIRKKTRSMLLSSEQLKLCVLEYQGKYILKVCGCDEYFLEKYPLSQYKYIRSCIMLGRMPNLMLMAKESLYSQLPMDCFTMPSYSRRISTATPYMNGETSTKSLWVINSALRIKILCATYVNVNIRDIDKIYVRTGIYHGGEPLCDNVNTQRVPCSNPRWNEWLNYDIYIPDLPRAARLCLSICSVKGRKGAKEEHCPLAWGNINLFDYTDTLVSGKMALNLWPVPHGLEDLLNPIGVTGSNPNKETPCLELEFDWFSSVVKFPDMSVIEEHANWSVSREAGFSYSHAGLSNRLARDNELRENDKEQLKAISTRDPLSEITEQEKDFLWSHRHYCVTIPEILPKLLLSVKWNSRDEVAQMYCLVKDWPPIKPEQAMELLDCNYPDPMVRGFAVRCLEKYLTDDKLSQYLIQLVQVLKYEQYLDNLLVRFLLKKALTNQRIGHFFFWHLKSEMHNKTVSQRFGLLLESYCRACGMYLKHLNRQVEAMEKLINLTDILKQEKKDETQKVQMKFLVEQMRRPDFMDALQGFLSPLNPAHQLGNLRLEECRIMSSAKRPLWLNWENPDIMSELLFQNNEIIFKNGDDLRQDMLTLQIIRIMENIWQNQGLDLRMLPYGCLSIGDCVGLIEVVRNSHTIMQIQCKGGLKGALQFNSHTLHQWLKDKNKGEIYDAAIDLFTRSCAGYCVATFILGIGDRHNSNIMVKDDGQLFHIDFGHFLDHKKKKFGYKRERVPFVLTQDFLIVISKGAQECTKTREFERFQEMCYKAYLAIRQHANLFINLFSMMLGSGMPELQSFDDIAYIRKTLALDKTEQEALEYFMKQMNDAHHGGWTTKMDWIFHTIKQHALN
A short description of assay [4]: Antiproliferative activity against Balb/c mouse splenic B cells preincubated for 30 mins followed by LPS or F(ab')2 donkey anti-mouse IgM and recombinant mouse IL4 stimulation measured after 72 hrs by Alamar Blue reduction assay. It is filed as functional, cell-based. In general terms: Resazurin is reduced to fluorescent resorufin, in cell work by metabolically active cells.

Broadly, the IC50 is the concentration at which inhibition is half-maximal. For orientation: EC50 means the concentration needed to bring the measured effect to its halfway point.

Chain of Phosphatidylinositol 4,5-bisphosphate 3-kinase catalytic subunit gamma isoform (P48736 whole entry, canonical isoform): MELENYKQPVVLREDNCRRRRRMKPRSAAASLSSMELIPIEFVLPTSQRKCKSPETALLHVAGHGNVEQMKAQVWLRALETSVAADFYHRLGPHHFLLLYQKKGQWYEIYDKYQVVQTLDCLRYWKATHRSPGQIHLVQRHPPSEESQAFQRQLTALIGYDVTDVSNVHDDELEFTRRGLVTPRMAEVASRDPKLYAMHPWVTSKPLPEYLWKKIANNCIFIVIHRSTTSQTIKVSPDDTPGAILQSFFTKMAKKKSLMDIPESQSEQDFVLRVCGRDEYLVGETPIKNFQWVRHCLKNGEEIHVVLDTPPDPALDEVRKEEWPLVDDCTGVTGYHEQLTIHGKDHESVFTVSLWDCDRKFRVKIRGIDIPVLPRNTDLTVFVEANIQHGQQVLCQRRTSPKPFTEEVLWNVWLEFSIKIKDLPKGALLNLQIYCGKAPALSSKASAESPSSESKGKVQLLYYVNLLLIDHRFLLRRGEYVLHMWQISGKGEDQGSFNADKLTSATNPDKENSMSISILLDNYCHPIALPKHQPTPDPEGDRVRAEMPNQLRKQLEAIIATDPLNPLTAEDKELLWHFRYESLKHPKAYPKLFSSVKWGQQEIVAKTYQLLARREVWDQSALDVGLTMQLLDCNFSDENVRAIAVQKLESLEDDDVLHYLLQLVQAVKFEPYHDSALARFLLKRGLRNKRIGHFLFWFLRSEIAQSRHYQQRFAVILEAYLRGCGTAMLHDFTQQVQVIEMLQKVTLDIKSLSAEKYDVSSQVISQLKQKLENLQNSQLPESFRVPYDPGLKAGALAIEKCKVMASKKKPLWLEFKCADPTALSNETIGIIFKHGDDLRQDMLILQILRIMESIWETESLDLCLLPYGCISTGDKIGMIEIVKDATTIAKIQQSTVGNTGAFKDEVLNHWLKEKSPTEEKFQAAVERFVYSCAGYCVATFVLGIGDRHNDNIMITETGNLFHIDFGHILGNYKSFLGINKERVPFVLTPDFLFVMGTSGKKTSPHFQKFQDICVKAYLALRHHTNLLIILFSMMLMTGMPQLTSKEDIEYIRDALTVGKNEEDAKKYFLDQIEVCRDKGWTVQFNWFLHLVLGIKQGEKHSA
Chain of PI3-kinase p110-delta/p85-alpha (P27986 whole entry): as the sequence (P27986 whole entry) above
Chain of PI3-kinase p110-delta/p85-alpha (O00329 whole entry): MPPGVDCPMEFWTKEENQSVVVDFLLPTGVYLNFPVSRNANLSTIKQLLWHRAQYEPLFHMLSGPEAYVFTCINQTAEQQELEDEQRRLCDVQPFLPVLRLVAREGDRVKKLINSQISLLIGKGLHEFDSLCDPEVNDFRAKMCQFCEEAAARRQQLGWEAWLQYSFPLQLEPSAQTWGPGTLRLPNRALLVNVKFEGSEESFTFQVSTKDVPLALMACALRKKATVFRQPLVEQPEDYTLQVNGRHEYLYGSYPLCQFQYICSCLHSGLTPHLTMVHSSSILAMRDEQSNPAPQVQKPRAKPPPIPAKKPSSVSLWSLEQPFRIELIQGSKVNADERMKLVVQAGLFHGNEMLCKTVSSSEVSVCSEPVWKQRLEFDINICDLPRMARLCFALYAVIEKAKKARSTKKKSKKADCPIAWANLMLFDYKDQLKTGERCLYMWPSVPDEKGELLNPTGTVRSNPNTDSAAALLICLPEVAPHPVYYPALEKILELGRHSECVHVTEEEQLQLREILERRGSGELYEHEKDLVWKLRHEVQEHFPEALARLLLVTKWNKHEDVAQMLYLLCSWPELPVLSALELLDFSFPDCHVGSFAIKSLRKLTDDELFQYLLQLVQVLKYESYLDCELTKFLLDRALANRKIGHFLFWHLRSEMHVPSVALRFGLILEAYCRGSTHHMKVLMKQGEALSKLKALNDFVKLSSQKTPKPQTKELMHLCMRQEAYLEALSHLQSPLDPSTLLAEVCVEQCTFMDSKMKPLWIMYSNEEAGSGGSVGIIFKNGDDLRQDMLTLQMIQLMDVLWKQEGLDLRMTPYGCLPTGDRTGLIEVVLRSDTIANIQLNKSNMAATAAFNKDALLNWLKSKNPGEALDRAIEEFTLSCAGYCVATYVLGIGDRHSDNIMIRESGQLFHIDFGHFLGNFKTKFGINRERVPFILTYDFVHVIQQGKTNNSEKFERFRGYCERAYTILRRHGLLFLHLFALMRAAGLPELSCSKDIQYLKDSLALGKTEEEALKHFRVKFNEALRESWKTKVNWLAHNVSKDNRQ

For `COc1cccc(-c2nn(Cc3cc4cccc(C)c4c(=O)n3-c3ccccc3C)c3ncnc(N)c23)c1`, the IC50 was under 1 µM in assay [1], under 10 µM at PI3K p110 beta/p85 alpha, under 1 µM in assay [2] and over 10 µM in assay [3]. Besides, the EC50 in assay [4] is under 1 µM.
Turning to `Cc1ccccc1-n1c(Cn2nc(-c3cn[nH]c3)c3c(N)ncnc32)cc2ccccc2c1=O`, the IC50 in assay [1] was under 1 µM; on PI3K p110 beta/p85 alpha, over 10 µM; in assay [2], under 10 µM; in assay [3], over 10 µM. The EC50 in assay [4] was under 0.1 µM.
As to `Cc1cccc2cc(Cn3nc(/C=C4/CCNC4=O)c4c(N)ncnc43)n(-c3ccccc3F)c(=O)c12`, the IC50 is under 10 µM in assay [1], over 10 µM on PI3K p110 beta/p85 alpha, over 10 µM in assay [2] and over 10 µM in assay [3].
On to `Cc1cccc2cc(Cn3nc(-c4cn[nH]c4)c4c(N)ncnc43)n(-c3ccccc3Cl)c(=O)c12`, for which the IC50 is 0.1 to 10 µM in assay [1], over 10 µM on PI3K p110 beta/p85 alpha, under 1 µM in assay [2] and over 10 µM in assay [3]. Further, in assay [4], the EC50 was under 0.1 µM.
Take `Cc1ccccc1-n1c(Cn2nc(CN3CCOCC3)c3c(N)ncnc32)cc2cccc(C)c2c1=O`: the IC50 in assay [1] is under 10 µM; at PI3K p110 beta/p85 alpha, over 10 µM; in assay [2], over 10 µM; in assay [3], over 10 µM.
On to `Cc1cccc2cc(Cn3nc(C#C[C@@H](C)O)c4c(N)ncnc43)n(C(C)C)c(=O)c12`, for which the IC50 is under 0.1 µM in assay [1], under 10 µM on PI3K p110 beta/p85 alpha, under 10 µM in assay [2] and over 10 µM in assay [3]. The EC50 in assay [4] was under 1 µM.
Take `Cc1ccccc1-n1c(Cn2nc(CCC(=O)N3CCOCC3)c3c(N)ncnc32)cc2cccc(C)c2c1=O`: the IC50 in assay [1] was under 10 µM; at PI3K p110 beta/p85 alpha, over 10 µM; in assay [2], over 10 µM; in assay [3], over 10 µM.
Regarding `Cc1ccccc1-n1c(Cn2nc(-c3cc(O)cc(F)c3)c3c(N)ncnc32)cc2cccc(F)c2c1=O`, the IC50 in assay [1] is under 0.1 µM; at PI3K p110 beta/p85 alpha it was under 10 µM; in assay [2], under 1 µM; in assay [3], over 10 µM. For the same compound, the EC50 in assay [4] is under 0.1 µM.
For the compound `Cc1ccccc1-n1c(Cn2nc(-c3cnn(C)c3)c3c(N)ncnc32)cc2cccc(C)c2c1=O`, the IC50 in assay [1] was under 10 µM; at PI3K p110 beta/p85 alpha it was over 10 µM; in assay [2] it was under 1 µM; in assay [3] it was over 10 µM.
For `Cc1ccccc1-n1c(Cn2nc(C#CCO)c3c(N)ncnc32)cc2cccc(C)c2c1=O`, the IC50 was under 0.1 µM in assay [1], over 10 µM at PI3K p110 beta/p85 alpha, under 1 µM in assay [2] and over 10 µM in assay [3]. Further, the EC50 in assay [4] was under 1 µM.
For `Cc1ccccc1-n1c(Cn2nc(I)c3c(N)ncnc32)cc2cccc(F)c2c1=O`, the IC50 is under 1 µM in assay [1], over 10 µM on PI3K p110 beta/p85 alpha, under 10 µM in assay [2] and over 10 µM in assay [3]. Further, in assay [4], the EC50 was under 1 µM.
On to `Cc1ccccc1-n1c(Cn2nc(C#N)c3c(N)ncnc32)cc2cccc(C)c2c1=O`, for which the IC50 is under 0.1 µM in assay [1], over 10 µM on PI3K p110 beta/p85 alpha, under 10 µM in assay [2] and over 10 µM in assay [3]. Also, the EC50 in assay [4] is under 0.1 µM.
In the case of `COc1ccccc1-n1c(Cn2nc(C#C[C@@H](C)O)c3c(N)ncnc32)cc2cccc(C)c2c1=O`, the concentration for half-maximal inhibition (IC50) in assay [1] was under 0.1 µM; at PI3K p110 beta/p85 alpha it was over 10 µM; in assay [2], under 1 µM; in assay [3], over 10 µM. Also, the EC50 in assay [4] is under 1 µM.
Take `Cc1cccc2cc(Cn3nc(-c4cc(O)cc(F)c4)c4c(N)ncnc43)n(C(C)C)c(=O)c12`: the IC50 in assay [1] is under 0.1 µM; on PI3K p110 beta/p85 alpha it was under 1 µM; in assay [2], under 1 µM; in assay [3], under 10 µM. In addition, the 50% effective concentration (EC50) in assay [4] was under 0.1 µM.
On to `Cc1cccc2cc(Cn3nc(-c4cc(O)cc(F)c4)c4c(N)ncnc43)n(-c3ccccc3OCCN3CCOCC3)c(=O)c12`, for which the IC50 in assay [1] is under 0.1 µM; at PI3K p110 beta/p85 alpha, under 10 µM; in assay [2] it was under 1 µM; in assay [3] it was under 10 µM. Moreover, the EC50 in assay [4] was under 0.1 µM.
Turning to `Cc1cccc2cc(Cn3nc(-c4ccc(F)c(O)c4)c4c(N)ncnc43)n(-c3ccccc3F)c(=O)c12`, the IC50 in assay [1] was under 0.1 µM; on PI3K p110 beta/p85 alpha, over 10 µM; in assay [2], under 1 µM; in assay [3] it was over 10 µM. In addition, the EC50 in assay [4] is under 1 µM.
For `CCN(Cc1cc2cccc(C)c2c(=O)n1-c1ccccc1C)c1ncnc2[nH]cnc12`, the IC50 is under 10 µM in assay [1], over 10 µM at PI3K p110 beta/p85 alpha, under 10 µM in assay [2] and over 10 µM in assay [3].
On to `Nc1ncnc2c1c(-c1cn[nH]c1)nn2Cc1cc2cccc(F)c2c(=O)n1-c1ccccc1F`, for which the IC50 in assay [1] is under 1 µM; at PI3K p110 beta/p85 alpha it was over 10 µM; in assay [2], under 10 µM; in assay [3], over 10 µM.
Consider `Cc1cccc2cc(Cn3nc(I)c4c(N)ncnc43)n(C(C)C)c(=O)c12`, for which the half-inhibitory concentration (IC50) in assay [1] was 0.1 to 10 µM; on PI3K p110 beta/p85 alpha it was over 10 µM; in assay [2], over 10 µM; in assay [3], over 10 µM.
For `Cc1cccc2cc(Cn3nc(C#C[C@@H](C)O)c4c(N)ncnc43)n(C3CCCC3)c(=O)c12`, the IC50 in assay [1] is under 0.1 µM; at PI3K p110 beta/p85 alpha, under 10 µM; in assay [2], under 10 µM; in assay [3] it was over 10 µM.
Regarding `Cc1ccccc1-n1c(Cn2nc(CCC(N)=O)c3c(N)ncnc32)cc2cccc(C)c2c1=O`, the 50% inhibitory concentration (IC50) in assay [1] is under 1 µM; at PI3K p110 beta/p85 alpha, over 10 µM; in assay [2] it was under 10 µM; in assay [3], over 10 µM.
On to `Cc1cccc2cc(Cn3nc(-c4cnn(C)c4)c4c(N)ncnc43)n(-c3ccccc3F)c(=O)c12`, for which the concentration for half-maximal inhibition (IC50) in assay [1] is under 10 µM; at PI3K p110 beta/p85 alpha it was over 10 µM; in assay [2], under 10 µM; in assay [3], over 10 µM.
Consider `Cc1cccc2cc(Cn3nc(-c4cccc(O)c4)c4c(N)ncnc43)n(C3CCCC3)c(=O)c12`, for which the IC50 in assay [1] is under 0.1 µM; at PI3K p110 beta/p85 alpha, under 10 µM; in assay [2], under 1 µM; in assay [3] it was over 10 µM.
The like results for `COc1cc(F)cc(-c2nn(Cc3cc4cccc(C)c4c(=O)n3-c3ccccc3C)c3ncnc(N)c23)c1` were, in that order, under 1 µM, over 10 µM, under 10 µM and over 10 µM.
On the same counts, the results for `Cc1ccccc1-n1c(Cn2nc(/C=C/C(=O)N3CCOCC3)c3c(N)ncnc32)cc2cccc(C)c2c1=O` are under 1 µM, over 10 µM, over 10 µM and over 10 µM.
The like results for `C=Cc1nn(Cc2cc3cccc(C)c3c(=O)n2-c2ccccc2F)c2ncnc(N)c12` were, in that order, under 1 µM, over 10 µM, under 10 µM and over 10 µM.
In the case of `Cc1ccccc1-n1c(Cn2nc(-c3cnn(CCO)c3)c3c(N)ncnc32)cc2cccc(C)c2c1=O`, the IC50 on PI3K p110 beta/p85 alpha is over 10 µM; in assay [2], under 1 µM; in assay [3], over 10 µM. Further, the EC50 in assay [4] is under 1 µM.
Take `Cc1cccc2cc(Cn3nc(-c4ccn[nH]4)c4c(N)ncnc43)n(-c3ccccc3F)c(=O)c12`: the half-inhibitory concentration (IC50) is under 1 µM in assay [1], over 10 µM at PI3K p110 beta/p85 alpha, under 10 µM in assay [2] and over 10 µM in assay [3].
